Assay results as given in patent US20230391748A1, “BICYCLIC INHIBITORS OF IRAK” (priority 2022, published 2023).

Experiments:
IRAK4 = IRAK4 (Homo sapiens (Human), UniProt Q9NWZ3); experiment: IRAK4 ADP-Glo Assay; format: biochemical; conditions: MBP substrate
Summary of the method: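 Human IRAK4 kinase reaction with MBP substrate plus ATP in Tris-HCl/MgCl2/BSA/DTT buffer, pH 7.4, run 60 min at room temperature or 30 min at 30 °C. ADP formed was measured by ADP-Glo luminescence after ATP depletion (40 min) and detection reagent (30 min).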

[1] = tested on: TNF-α in Human Primary Monocyte-Derived Dendritic Cells; experiment: Gardiquimod-Induced TNF-α in Human Primary Monocyte-Derived Dendritic Cells; format: cell-based; conditions: Dendritic cell, IFNγ-primed monocyte-derived dendritic cells, 4 μg/ml Gardiquimod, 6 hours, TNF-α ELISA, read-out: TNFα (DC, GARD) (IC50)
Summary of the method: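 Monocytes differentiated 7 days with GM-CSF and IL-4, then primed 24 h with 50 ng/ml IFN-γ. Compound added 1 h before 6 h stimulation with 4 μg/ml Gardiquimod, 0.5% DMSO final. Supernatant TNF-α measured by chemiluminescent ELISA; EC50 from curve fitting.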

IL23p19 in THP-1 Cells = experiment: LPS Induced IL23p19 in THP-1 Cells (with IFNγ Primed) Assay; format: cell-based; conditions: Homo sapiens, THP-1, 18 h, read-out: IL23 (THP, LPS) (IC50, μM)
Summary of the method: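 THP-1 cells (50K/well) primed with IFNγ (50 ng/mL) about 18 h, then given compound and stimulated with LPS for 18 h at 37 °C. Secreted IL-23p19 measured by sandwich ELISA with chemiluminescent read-out, giving EC50. Cell Titer Glo used on the remaining cells for toxicity.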

TNF-α in human PBMCs = experiment: R848-induced TNF-α in human PBMCs Assay; format: cell-based; conditions: Homo sapiens, PBMC, 4 h, read-out: TNFα (PBMC, R848) (IC50, μM)
Summary of the method: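 Human PBMCs at 200K/well were pretreated with compound, then R848-stimulated for 4 h at 37 °C, 5% CO2. Supernatant TNF-α quantified by chemiluminescent ELISA; EC50 from curve fitting.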

Sequence of IRAK4 (Q9NWZ3 whole entry): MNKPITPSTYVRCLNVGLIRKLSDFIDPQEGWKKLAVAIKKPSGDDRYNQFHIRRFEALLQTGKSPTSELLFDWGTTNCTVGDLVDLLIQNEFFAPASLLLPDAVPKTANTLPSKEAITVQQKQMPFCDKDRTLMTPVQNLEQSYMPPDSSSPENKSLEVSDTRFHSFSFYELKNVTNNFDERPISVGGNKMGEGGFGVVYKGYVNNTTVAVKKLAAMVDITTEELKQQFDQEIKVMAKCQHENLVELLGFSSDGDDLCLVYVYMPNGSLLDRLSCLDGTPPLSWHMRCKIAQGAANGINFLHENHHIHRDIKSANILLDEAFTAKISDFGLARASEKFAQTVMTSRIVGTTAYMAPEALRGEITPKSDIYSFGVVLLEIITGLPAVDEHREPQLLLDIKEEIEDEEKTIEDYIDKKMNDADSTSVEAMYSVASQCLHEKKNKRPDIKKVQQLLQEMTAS

CC(C)Oc1cc2c(O[C@@H]3CCCNC3)ncc(-c3cnn(C4CCC4)c3)c2cc1C(N)=O [Compound I-109, (R)-4-(1-cyclobutyl-1H-pyrazol-4-yl)-7-isopropoxy-1-(piperidin-3-yloxy)isoquinoline-6-carboxamide]
IC50 (IRAK4): 171 nM
IC50 [1]: 1440 nM
IC50 (IL23p19 in THP-1 Cells): 34.9 µM
IC50 (TNF-α in human PBMCs): 2.55 µM

CC(C)Oc1cc2c(OC[C@@H]3CC(F)(F)C(=O)N3)ncc(C#CCC3CCOCC3)c2cc1C(N)=O [Compound I-50, (S)-1-((4,4-difluoro-5-oxopyrrolidin-2-yl)methoxy)-7-isopropoxy-4-(3-(tetrahydro-2H-pyran-4-yl)prop-1-yn-1-yl)isoquinoline-6-carboxamide]
IC50 (IRAK4): 4.8 nM
IC50 [1]: 230 nM
IC50 (IL23p19 in THP-1 Cells): 1.62 µM
IC50 (TNF-α in human PBMCs): 0.115 µM

CC(C)Oc1cc2c(OC[C@@H]3CC(F)(F)C(=O)N3)ncc(-c3cnn(CC4CCOCC4)c3)c2cc1C(N)=O [Compound I-71, (S)-1-((4,4-difluoro-5-oxopyrrolidin-2-yl)methoxy)-7-isopropoxy-4-(1-((tetrahydro-2H-pyran-4-yl)methyl)-1H-pyrazol-4-yl)isoquinoline-6-carboxamide]
IC50 (IRAK4): 6.4 nM
IC50 [1]: 148 nM
IC50 (IL23p19 in THP-1 Cells): 0.848 µM
IC50 (TNF-α in human PBMCs): 0.174 µM

CC(C)Oc1cc2c(O[C@@H]3CCCN(C(=O)CC#N)C3)ncc(C#CC3(O)CCCC3)c2cc1C(N)=O [Compound I-88, (R)-1-((1-(2-cyanoacetyl)piperidin-3-yl)oxy)-4-((1-hydroxycyclopentyl)ethynyl)-7-isopropoxyisoquinoline-6-carboxamide]
IC50 (IRAK4): 29.7 nM
IC50 [1]: 696 nM
IC50 (IL23p19 in THP-1 Cells): 2.07 µM
IC50 (TNF-α in human PBMCs): 0.903 µM

CC(C)Oc1cc2c(OC[C@@H]3CCC(=O)N3)ncc(C#CCCN3CCOCC3)c2cc1C(N)=O [Compound I-8, (S)-7-isopropoxy-4-(4-morpholinobut-1-yn-1-yl)-1-((5-oxopyrrolidin-2-yl)methoxy)isoquinoline-6-carboxamide]
IC50 (IRAK4): 12.3 nM
IC50 [1]: 313 nM
IC50 (IL23p19 in THP-1 Cells): 0.332 µM
IC50 (TNF-α in human PBMCs): 0.411 µM

CC(C)Oc1cc2c(OC[C@@H]3CCC(=O)N3)ncc(-c3cnn([C@H]4CC[C@@](C)(O)CC4)c3)c2cc1C(N)=O [Compound I-41, 4-(1-((1s,4R)-4-hydroxy-4-methylcyclohexyl)-1H-pyrazol-4-yl)-7-isopropoxy-1-(((S)-5-oxopyrrolidin-2-yl)methoxy)isoquinoline-6-carboxamide]
IC50 (IRAK4): 37.6 nM
IC50 [1]: 10000 nM
IC50 (IL23p19 in THP-1 Cells): 4.61 µM
IC50 (TNF-α in human PBMCs): 0.509 µM

COC1(OC)CC(C#Cc2cnc(OC[C@@H]3CC(F)(F)C(=O)N3)c3cc(OC(C)C)c(C(N)=O)cc23)C1 [Compound I-65, (S)-1-((4,4-difluoro-5-oxopyrrolidin-2-yl)methoxy)-4-((3,3-dimethoxycyclobutyl)ethynyl)-7-isopropoxyisoquinoline-6-carboxamide]
IC50 (IRAK4): 8.7 nM
IC50 [1]: 29 nM
IC50 (IL23p19 in THP-1 Cells): 0.0465 µM
IC50 (TNF-α in human PBMCs): 0.0065 µM

CC(C)Oc1cc2c(O[C@@H]3CCCN(C(=O)CC#N)C3)ncc(-c3cnn(C4CCCC4)c3)c2cc1C(N)=O [Compound I-116, (R)-1-((1-(2-cyanoacetyl)piperidin-3-yl)oxy)-4-(1-cyclopentyl-1H-pyrazol-4-yl)-7-isopropoxyisoquinoline-6-carboxamide]
IC50 (IRAK4): 7.7 nM
IC50 [1]: 219 nM
IC50 (IL23p19 in THP-1 Cells): 1.37 µM
IC50 (TNF-α in human PBMCs): 0.271 µM

CC(C)Oc1cc2c(OC[C@@H]3CC(F)(F)C(=O)N3)ncc(C#CC3(O)CCN(C)CC3)c2cc1C(N)=O [Compound I-57, (S)-1-((4,4-difluoro-5-oxopyrrolidin-2-yl)methoxy)-4-((4-hydroxy-1-methylpiperidin-4-yl)ethynyl)-7-isopropoxyisoquinoline-6-carboxamide]
IC50 (IRAK4): 4.5 nM
IC50 [1]: 634 nM
IC50 (IL23p19 in THP-1 Cells): 7.39 µM
IC50 (TNF-α in human PBMCs): 0.468 µM

CC(C)Oc1cc2c(OC[C@@H]3CC(F)(F)C(=O)N3)ncc(-c3cnn(C4CCN(C)CC4)c3)c2cc1C(N)=O [Compound I-76, (S)-1-((4,4-difluoro-5-oxopyrrolidin-2-yl)methoxy)-7-isopropoxy-4-(1-(1-methylpiperidin-4-yl)-1H-pyrazol-4-yl)isoquinoline-6-carboxamide]
IC50 (IRAK4): 2.4 nM
IC50 [1]: 452 nM
IC50 (IL23p19 in THP-1 Cells): 1.11 µM
IC50 (TNF-α in human PBMCs): 0.375 µM

CCO[C@H]1CC[C@H](n2cc(-c3cnc(OC[C@@H]4CC(F)(F)C(=O)N4)c4cc(OC(C)C)c(C(N)=O)cc34)cn2)CC1 [Compound I-77, 1-(((S)-4,4-difluoro-5-oxopyrrolidin-2-yl)methoxy)-4-(1-(trans-4-ethoxycyclohexyl)-1H-pyrazol-4-yl)-7-isopropoxyisoquinoline-6-carboxamide]
IC50 (IRAK4): 7 nM
IC50 [1]: 349 nM
IC50 (IL23p19 in THP-1 Cells): 0.152 µM
IC50 (TNF-α in human PBMCs): 0.12 µM

CC(C)Oc1cc2c(OC[C@@H]3CC(F)(F)C(=O)N3)ncc(C#CC3CN(C(=O)OC(C)(C)C)C3)c2cc1C(N)=O [Compound I-62, tert-butyl (S)-3-((6-carbamoyl-1-((4,4-difluoro-5-oxopyrrolidin-2-yl)methoxy)-7-isopropoxyisoquinolin-4-yl)ethynyl)azetidine-1-carboxylate]
IC50 (IRAK4): 19.3 nM
IC50 [1]: 2.1 nM
IC50 (IL23p19 in THP-1 Cells): 0.0219 µM
IC50 (TNF-α in human PBMCs): 0.001 µM

COC(=O)N1CC(C#Cc2cnc(OC[C@@H]3CCC(=O)N3)c3cc(OC(C)C)c(C(N)=O)cc23)C1 [Compound I-28, methyl (S)-3-((6-carbamoyl-7-isopropoxy-1-((5-oxopyrrolidin-2-yl)methoxy)isoquinolin-4-yl)ethynyl)azetidine-1-carboxylate]
IC50 (IRAK4): 6.3 nM
IC50 [1]: 111 nM
IC50 (IL23p19 in THP-1 Cells): 0.14 µM
IC50 (TNF-α in human PBMCs): 0.0331 µM

CC(C)Oc1cc2c(OC[C@@H]3CCC(=O)N3)ncc(C#CC3(O)CCOCC3)c2cc1C(N)=O [Compound I-10, (S)-4-((4-hydroxytetrahydro-2H-pyran-4-yl)ethynyl)-7-isopropoxy-1-((5-oxopyrrolidin-2-yl)methoxy)isoquinoline-6-carboxamide]
IC50 (IRAK4): 11.6 nM
IC50 [1]: 2930 nM
IC50 (IL23p19 in THP-1 Cells): 3.28 µM
IC50 (TNF-α in human PBMCs): 0.873 µM

CC(C)Oc1cc2c(O[C@@H]3CCCNC3)ncc(-c3cnn(C4CCOCC4)c3)c2cc1C(N)=O [Compound I-111, (R)-7-isopropoxy-1-(piperidin-3-yloxy)-4-(1-(tetrahydro-2H-pyran-4-yl)-1H-pyrazol-4-yl)isoquinoline-6-carboxamide]
IC50 (IRAK4): 1440 nM
IC50 [1]: 2270 nM
IC50 (IL23p19 in THP-1 Cells): 15.5 µM
IC50 (TNF-α in human PBMCs): 3.46 µM

CCO[C@H]1CC[C@H](n2cc(-c3cnc(OC[C@@H]4CCC(=O)N4)c4cc(OC(C)C)c(C(N)=O)cc34)cn2)CC1 [Compound I-39, 4-(1-(trans-4-ethoxycyclohexyl)-1H-pyrazol-4-yl)-7-isopropoxy-1-(((S)-5-oxopyrrolidin-2-yl)methoxy)isoquinoline-6-carboxamide]
IC50 (IRAK4): 33.3 nM
IC50 [1]: 3520 nM
IC50 (IL23p19 in THP-1 Cells): 0.775 µM
IC50 (TNF-α in human PBMCs): 0.693 µM

CC(C)Oc1cc2c(O[C@@H]3CCCN(C(=O)CC#N)C3)ncc(C#CC3CN(C)C3)c2cc1C(N)=O [Compound I-104, (R)-1-((1-(2-cyanoacetyl)piperidin-3-yl)oxy)-7-isopropoxy-4-((1-methylazetidin-3-yl)ethynyl)isoquinoline-6-carboxamide]
IC50 (IRAK4): 7.1 nM
IC50 [1]: 159 nM
IC50 (IL23p19 in THP-1 Cells): 1.76 µM
IC50 (TNF-α in human PBMCs): 0.237 µM
